One may read the IC50 as the point on the concentration scale where inhibition reaches its midpoint.

Structures can show the parent of a compound that is named as a salt.

For assay [1], the target named is mutant G2019S LRRK2 (Homo sapiens, UniProt Q5S007, G2019S). The assay can be described thus: LRRK2 Assay, Format 2 (Lantha Screen), G2019S mutant. Format: biochemical. The arrangement: purchased Invitrogen PV4881. The settings on record: geometric mean of 2-4 determinations unless otherwise indicated (a: >=5; b: single determination); read-out: LRRK2, Format 2 G2019S IC50.
Sequence of mutant G2019S LRRK2 (Q5S007 970-2527 G2019S limits assumed): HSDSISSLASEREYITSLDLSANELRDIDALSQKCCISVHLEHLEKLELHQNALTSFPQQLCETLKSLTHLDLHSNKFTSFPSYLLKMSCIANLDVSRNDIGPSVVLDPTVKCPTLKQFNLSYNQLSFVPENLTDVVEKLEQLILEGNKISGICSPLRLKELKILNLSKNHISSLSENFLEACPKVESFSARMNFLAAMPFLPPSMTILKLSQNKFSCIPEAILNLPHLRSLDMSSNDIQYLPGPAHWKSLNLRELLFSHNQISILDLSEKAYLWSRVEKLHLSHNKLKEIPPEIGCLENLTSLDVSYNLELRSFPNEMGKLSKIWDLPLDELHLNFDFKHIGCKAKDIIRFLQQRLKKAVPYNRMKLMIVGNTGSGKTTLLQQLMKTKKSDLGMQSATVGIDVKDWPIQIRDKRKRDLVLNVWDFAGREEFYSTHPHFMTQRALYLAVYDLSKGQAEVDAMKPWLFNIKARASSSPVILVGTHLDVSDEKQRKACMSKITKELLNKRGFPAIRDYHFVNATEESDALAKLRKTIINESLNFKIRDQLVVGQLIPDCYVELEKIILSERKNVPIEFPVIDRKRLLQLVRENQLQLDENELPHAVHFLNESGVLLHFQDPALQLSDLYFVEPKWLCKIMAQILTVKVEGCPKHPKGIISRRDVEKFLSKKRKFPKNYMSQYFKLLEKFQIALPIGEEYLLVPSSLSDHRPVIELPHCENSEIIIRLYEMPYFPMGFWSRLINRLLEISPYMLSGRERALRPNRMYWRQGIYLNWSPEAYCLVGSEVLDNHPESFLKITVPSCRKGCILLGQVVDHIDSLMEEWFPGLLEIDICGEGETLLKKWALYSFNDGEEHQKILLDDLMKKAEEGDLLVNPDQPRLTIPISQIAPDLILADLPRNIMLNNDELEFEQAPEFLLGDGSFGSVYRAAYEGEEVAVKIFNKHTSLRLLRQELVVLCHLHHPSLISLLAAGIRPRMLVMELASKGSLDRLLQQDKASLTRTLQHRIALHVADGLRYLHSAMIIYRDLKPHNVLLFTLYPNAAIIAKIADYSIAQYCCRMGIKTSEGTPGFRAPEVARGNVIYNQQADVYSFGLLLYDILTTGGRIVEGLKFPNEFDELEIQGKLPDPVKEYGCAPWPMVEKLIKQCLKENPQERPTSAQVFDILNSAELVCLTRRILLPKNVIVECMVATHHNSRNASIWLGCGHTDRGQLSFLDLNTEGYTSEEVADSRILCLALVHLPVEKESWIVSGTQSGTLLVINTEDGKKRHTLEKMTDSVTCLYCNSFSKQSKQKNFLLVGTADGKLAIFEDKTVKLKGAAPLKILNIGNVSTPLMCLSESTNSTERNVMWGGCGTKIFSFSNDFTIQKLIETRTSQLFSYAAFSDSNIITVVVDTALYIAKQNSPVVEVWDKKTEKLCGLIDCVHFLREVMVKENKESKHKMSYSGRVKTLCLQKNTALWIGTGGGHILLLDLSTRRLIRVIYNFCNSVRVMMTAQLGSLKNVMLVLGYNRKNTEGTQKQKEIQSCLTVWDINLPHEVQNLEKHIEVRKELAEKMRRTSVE

Assay [2] addresses T1, GST-tagged truncated LRRK2 (Homo sapiens, UniProt Q5S007).
T1 construct: GST-tagged truncated LRRK2 from Invitrogen (Cat # PV4874); GST; purchased Invitrogen PV4874
Nature of the assay: LRRK2 Assay, Format 2 (Lantha Screen), WT. Format: biochemical. The note with it: geometric mean of 2-4 determinations unless otherwise indicated (a: >=5; b: single determination).

T1 sequence (Q5S007 970-2527 limits assumed): as the sequence (Q5S007 970-2527 G2019S limits assumed) above, with S1050G counted along it

As for `C[C@@H]1C[C@H](n2c(Cc3cnco3)nc3cnc4ccc(Cl)cc4c32)CCO1` [Example 127, 8-chloro-1-[(2R,4R)-2-methyltetrahydro-2H-pyran-4-yl]-2-(1,3-oxazol-5-ylmethyl)-1H-imidazo[4,5-c]quinoline, formate salt], the values for the IC50 in assay [1] and in assay [2] were 8.01 nM and 7.02 nM, respectively.

As for `C[C@@H]1C[C@H](n2c(Cc3nnnn3C)nc3cnc4ccc(Cl)cc4c32)CCO1` [Example 128, 8-chloro-1-[(2R,4R)-2-methyltetrahydro-2H-pyran-4-yl]-2-[(1-methyl-1H-tetrazol-5-yl)methyl]-1H-imidazo[4,5-c]quinoline, formate salt], the IC50 amounted to 6.95 nM in assay [1] and 7.18 nM in assay [2].

Take `C[C@@H]1C[C@H](n2c(Cn3cnnn3)nc3cnc4ccc(Cl)cc4c32)CCO1` [Example 129, 8-chloro-1-[(2R,4R)-2-methyltetrahydro-2H-pyran-4-yl]-2-(1H-tetrazol-1-ylmethyl)-1H-imidazo[4,5-c]quinoline, formate salt]: the results for the IC50 in assay [1] and in assay [2] were 4.17 nM and 3.64 nM, respectively.

Regarding `C[C@@H]1C[C@H](n2c(Cn3cccn3)nc3cnc4ccc(Cl)cc4c32)CCO1` [Example 130, 8-chloro-1-[(2R,4R)-2-methyltetrahydro-2H-pyran-4-yl]-2-(1H-pyrazol-1-ylmethyl)-1H-imidazo[4,5-c]quinoline, formate salt], the IC50 in assay [1] was 3.84 nM; in assay [2], 3.43 nM.

For `C[C@@H]1C[C@H](n2c(Cc3cn(C)cn3)nc3cnc4ccc(Cl)cc4c32)CCO1` [Example 131, 8-chloro-2-[(1-methyl-1H-imidazol-4-yl)methyl]-1-[(2R,4R)-2-methyltetrahydro-2H-pyran-4-yl]-1H-imidazo[4,5-c]quinoline], the concentration for half-maximal inhibition (IC50) came to 7.86 nM in assay [1] and 7.23 nM in assay [2].

Turning to `Cc1cnn(Cc2nc3cnc4ccc(C#N)cc4c3n2[C@@H]2CCO[C@H](C)C2)c1` [Example 133, 2-[(4-methyl-1H-pyrazol-1-yl)methyl]-1-[(2R,4R)-2-methyltetrahydro-2H-pyran-4-yl]-1H-imidazo[4,5-c]quinoline-8-carbonitrile], the IC50 amounted to 7.16 nM in assay [1] and 7.68 nM in assay [2].

Regarding `Cc1cc(Cc2nc3cnc4ccc(Cl)cc4c3n2[C@@H]2CCO[C@H](CO)C2)no1` [Example 137, [(2S,4R)-4-{8-chloro-2-[(5-methyl-1,2-oxazol-3-yl)methyl]-1H-imidazo[4,5-c]quinolin-1-yl}tetrahydro-2H-pyran-2-yl]methanol], the values for the IC50 in assay [1] and in assay [2] were 12 nM and 14.1 nM, respectively.

Regarding `C[C@@H]1C[C@H](n2c(Cc3cc(CO)on3)nc3cnc4ccc(Cl)cc4c32)CCO1` [Example 138], the concentration for half-maximal inhibition (IC50) in assay [1] is 3.72 nM; in assay [2], 2.89 nM.

With `C[C@@H]1C[C@H](n2c(Cc3cc(CF)on3)nc3cnc4ccc(Cl)cc4c32)CCO1` [Example 139, 8-chloro-2-{[5-(fluoromethyl)-1,2-oxazol-3-yl]methyl}-1-[(2R,4R)-2-methyltetrahydro-2H-pyran-4-yl]-1H-imidazo[4,5-c]quinoline], the IC50 in assay [1] worked out at 2.79 nM; in assay [2] it was 2.76 nM.

As for `Cc1cnc(Cc2nc3cnc4ccc(C(F)(F)F)cc4c3n2[C@@H]2CCO[C@H](C)C2)cn1` [Example 141, 2-[(5-methylpyrazin-2-yl)methyl]-1-[(2R,4R)-2-methyltetrahydro-2H-pyran-4-yl]-8-(trifluoromethyl)-1H-imidazo[4,5-c]quinoline], the IC50 in assay [1] is 1.38 nM; in assay [2] it was 2.07 nM.

Turning to `C[C@@H]1C[C@H](n2c(Cc3cccnn3)nc3cnc4ccc(Cl)cc4c32)CCO1` [Example 142, 8-chloro-1-[(2R,4R)-2-methyltetrahydro-2H-pyran-4-yl]-2-(pyridazin-3-ylmethyl)-1H-imidazo[4,5-c]quinoline], the figures for the IC50 in assay [1] and in assay [2] were 5.63 nM and 7.11 nM, respectively.

Take `Cc1cn(Cc2nc3cnc4ccc(Cl)cc4c3n2C2CCOC(C)(C)C2)nn1` (stereo not shown) [Example 148, 8-chloro-1-(2,2-dimethyltetrahydro-2H-pyran-4-yl)-2-[(4-methyl-1H-1,2,3-triazol-1-yl)methyl]-1H-imidazo[4,5-c]quinoline, formate salt]: the IC50 in assay [1] turned out to be 13.6 nM; in assay [2], 12.6 nM.

Turning to `C[C@@H]1C[C@H](n2c(Cc3cn4ncsc4n3)nc3cnc4ccc(C#N)cc4c32)CCO1` [Example 149, 2-(imidazo[2,1-b][1,3,4]thiadiazol-6-ylmethyl)-1-[(2R,4R)-2-methyltetrahydro-2H-pyran-4-yl]-1H-imidazo[4,5-c]quinoline-8-carbonitrile], the values for the IC50 in assay [1] and in assay [2] were 2.12 nM and 2.04 nM, respectively.

As to `CC1(C)CC(n2c(Cn3cnnn3)nc3cnc4ccc(Cl)cc4c32)CCO1` (stereo not shown) [Example 150, 8-chloro-1-(2,2-dimethyltetrahydro-2H-pyran-4-yl)-2-(1H-tetrazol-1-ylmethyl)-1H-imidazo[4,5-c]quinoline, formate salt], the IC50 came out at 12.1 nM in assay [1] and 11.6 nM in assay [2].

Consider `Cc1cc(Cc2nc3cnc4ccc(C#N)cc4c3n2C2CCCCC2(F)F)no1` (stereo not shown) [Example 151, 1-(2,2-difluorocyclohexyl)-2-[(5-methyl-1,2-oxazol-3-yl)methyl]-1H-imidazo[4,5-c]quinoline-8-carbonitrile, formate salt], for which the IC50 is 25.5 nM in assay [1] and 16.7 nM in assay [2].

In the case of `Cc1cc(Cc2nc3cnc4ccc(C#N)cc4c3n2C2CCCC2)no1` [Example 152, 1-cyclopentyl-2-[(5-methyl-1,2-oxazol-3-yl)methyl]-1H-imidazo[4,5-c]quinoline-8-carbonitrile, formate salt], the half-inhibitory concentration (IC50) in assay [1] worked out at 40.8 nM; in assay [2], 25.1 nM.

With `C[C@@H]1C[C@H](n2c(Cc3nc4ccccc4o3)nc3cnc4ccc(C#N)cc4c32)CCO1` [Example 153, 2-(1,3-benzoxazol-2-ylmethyl)-1-[(2R,4R)-2-methyltetrahydro-2H-pyran-4-yl]-1H-imidazo[4,5-c]quinoline-8-carbonitrile, formate salt], the IC50 in assay [1] is 5.34 nM; in assay [2], 6.04 nM.

Take `C[C@@H]1C[C@H](n2c(Cc3noc4ccccc34)nc3cnc4ccc(C#N)cc4c32)CCO1` [Example 154, 2-(1,2-benzoxazol-3-ylmethyl)-1-[(2R,4R)-2-methyltetrahydro-2H-pyran-4-yl]-1H-imidazo[4,5-c]quinoline-8-carbonitrile, formate salt]: the 50% inhibitory concentration (IC50) in assay [1] came to 3.71 nM; in assay [2], 4.01 nM.

Regarding `Cc1nc(Cc2nc3cnc4ccc(C#N)cc4c3n2[C@@H]2CCO[C@H](C)C2)c(C2CC2)o1` [Example 155, 2-[(5-cyclopropyl-2-methyl-1,3-oxazol-4-yl)methyl]-1-[(2R,4R)-2-methyltetrahydro-2H-pyran-4-yl]-1H-imidazo[4,5-c]quinoline-8-carbonitrile, formate salt], the IC50 is 8.99 nM in assay [1] and 11.8 nM in assay [2].

As for `CCc1nn2cc(Cc3nc4cnc5ccc(C#N)cc5c4n3[C@@H]3CCO[C@H](C)C3)nc2s1` [Example 156, 2-[(2-ethylimidazo[2,1-b][1,3,4]thiadiazol-6-yl)methyl]-1-[(2R,4R)-2-methyltetrahydro-2H-pyran-4-yl]-1H-imidazo[4,5-c]quinoline-8-carbonitrile, formate salt], the results for the IC50 in assay [1] and in assay [2] were 4.31 nM and 4.78 nM, respectively.

In the case of `Cc1nn2cc(Cc3nc4cnc5ccc(C#N)cc5c4n3[C@@H]3CCO[C@H](C)C3)nc2s1` [Example 157, 2-[(2-methylimidazo[2,1-b][1,3,4]thiadiazol-6-yl)methyl]-1-[(2R,4R)-2-methyltetrahydro-2H-pyran-4-yl]-1H-imidazo[4,5-c]quinoline-8-carbonitrile, formate salt], the IC50 in assay [1] amounted to 3.79 nM; in assay [2], 3.96 nM.

`C[C@@H]1C[C@H](n2c(Cc3cn4ccccc4n3)nc3cnc4ccc(C#N)cc4c32)CCO1` [Example 158, 2-(imidazo[1,2-a]pyridin-2-ylmethyl)-1-[(2R,4R)-2-methyltetrahydro-2H-pyran-4-yl]-1H-imidazo[4,5-c]quinoline-8-carbonitrile, formate salt]: the values for the IC50 in assay [1] and in assay [2] were 5.22 nM and 6.01 nM, respectively.

`Cc1ccn2cc(Cc3nc4cnc5ccc(Cl)cc5c4n3[C@@H]3CCO[C@H](C)C3)nc2n1` [Example 159, 8-chloro-2-[(7-methylimidazo[1,2-a]pyrimidin-2-yl)methyl]-1-[(2R,4R)-2-methyltetrahydro-2H-pyran-4-yl]-1H-imidazo[4,5-c]quinoline]: the concentration for half-maximal inhibition (IC50) in assay [1] was determined as 6.15 nM; in assay [2] it was 6.06 nM.

Turning to `C[C@@H]1C[C@H](n2c(Cn3ccc(C4CC4)n3)nc3cnc4ccc(Cl)cc4c32)CCO1` [Example 160, 8-chloro-2-[(3-cyclopropyl-1H-pyrazol-1-yl)methyl]-1-[(2R,4R)-2-methyltetrahydro-2H-pyran-4-yl]-1H-imidazo[4,5-c]quinoline, formate salt], the IC50 came out at 6.36 nM in assay [1] and 6.23 nM in assay [2].

`C[C@@H]1C[C@H](n2c(Cn3nccn3)nc3cnc4ccc(Cl)cc4c32)CCO1` [Example 161, 8-chloro-1-[(2R,4R)-2-methyltetrahydro-2H-pyran-4-yl]-2-(2H-1,2,3-triazol-2-ylmethyl)-1H-imidazo[4,5-c]quinoline, formate salt]: the half-inhibitory concentration (IC50) in assay [1] turned out to be 6.94 nM; in assay [2], 6.39 nM.

As to `Cc1nn2cc(Cc3nc4cnc5ccc(Cl)cc5c4n3[C@@H]3CCO[C@H](C)C3)nc2s1` [Example 162, 8-chloro-2-[(2-methylimidazo[2,1-b][1,3,4]thiadiazol-6-yl)methyl]-1-[(2R,4R)-2-methyltetrahydro-2H-pyran-4-yl]-1H-imidazo[4,5-c]quinoline, formate salt], the IC50 was found to be 3.83 nM in assay [1] and 3.86 nM in assay [2].
